The results in this text go back to patent US7419780B2, “Methods and assays for screening protein targets” (The Trustees of Columbia University in the City of New York, priority 2000, dated 2008).

Format in all cases: cell-based, S. cerevisiae
Holding throughout (conditions): 1 uM small molecule, difference to activity without small molecule, average of two trials

Test [1] has as its target T1, LexA eDHFR / B42 (GSG)rGR2 (UniProt P06536+P0ABQ4, C656G/F620S).
T1 construct: rat Glucocorticoid Receptor (aa 524-795) with point mutations; expressed in transfected cells; host or cells: S. cerevisiae FY250
T1 sequence (P0ABQ4 1-159): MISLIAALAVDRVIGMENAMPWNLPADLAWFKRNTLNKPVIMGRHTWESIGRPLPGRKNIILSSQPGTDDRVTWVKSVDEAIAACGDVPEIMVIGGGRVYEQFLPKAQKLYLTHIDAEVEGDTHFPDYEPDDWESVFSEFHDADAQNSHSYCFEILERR
T1 sequence (P06536 524-795 F620S/C656G limits assumed): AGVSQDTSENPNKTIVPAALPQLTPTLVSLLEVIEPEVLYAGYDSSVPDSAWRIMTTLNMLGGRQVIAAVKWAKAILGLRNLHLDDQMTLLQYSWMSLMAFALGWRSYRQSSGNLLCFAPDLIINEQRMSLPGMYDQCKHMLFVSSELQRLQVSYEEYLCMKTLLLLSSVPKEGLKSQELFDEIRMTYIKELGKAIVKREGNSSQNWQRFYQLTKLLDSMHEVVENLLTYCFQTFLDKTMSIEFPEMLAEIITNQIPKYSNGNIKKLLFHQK
In words: β-galactosidase activity assay, strain V494Y. An excerpt: (§1) Table III explains the components of each strain. Each strain was constructed from the parent yeast strain FY250 and also contains the pMW106 plasmid, which has the LacZ reporter gene that is turned on only in when the LexA DNA binding domain and the B42 activation are brought in tot he vicinity of each other. We use several different strains because we use DHFR from two different species, mDHFR is from murine, while eDHFR is from E. coli. We are asl oable to switch the small moleculebinding domains. For example, the strain containing LexA-eDHFR with B42-rGH2 is a different strain and behaves differently from the strain containing LexA-rGR2 with B42-eDHFR. We also put in short 6 amino acid linkers between the two domains of our protein chimeras and thus these are different strain as well.
(§2) The results in Table IV are averages of two separate trials. Each strain was examined with small molecules and without small molecules. The absolute activity is given as the β-galactisidase activity […]. The average β-galactosidse activity for a strain without small molecule (i.e. the negative control) was about 100 β-galactosidase units.

Test [2] has as its target T2, LexA mDHFR / B42 (GSG)rGR2 (UniProt P00375+P06536, C656G/F620S).
T2 construct: rat Glucocorticoid Receptor (aa 524-795) with point mutations; expressed in transfected cells; host or cells: S. cerevisiae FY250
T2 sequence (P00375 1-187): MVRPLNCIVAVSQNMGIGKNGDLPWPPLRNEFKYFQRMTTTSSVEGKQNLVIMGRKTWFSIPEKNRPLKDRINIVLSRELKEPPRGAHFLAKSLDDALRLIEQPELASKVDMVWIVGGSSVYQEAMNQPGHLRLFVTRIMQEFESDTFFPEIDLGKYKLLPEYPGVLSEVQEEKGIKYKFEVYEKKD
T2 sequence (P06536 524-795 F620S/C656G limits assumed): T1 sequence (P06536 524-795 F620S/C656G limits assumed)
Briefly: β-galactosidase activity assay, strain V497Y.
Description: as §1, §2

For test [3], the target named is T3, LexA (GSG)2mDHFR / B42 rGR2 (UniProt P00375+P06536, C656G/F620S).
T3 construct: rat Glucocorticoid Receptor (aa 524-795) with point mutations; expressed in transfected cells; host or cells: S. cerevisiae FY250
T3 sequence (P00375 1-187): T2 sequence (P00375 1-187)
T3 sequence (P06536 524-795 F620S/C656G limits assumed): T1 sequence (P06536 524-795 F620S/C656G limits assumed)
In words: β-galactosidase activity assay, strain V502Y.
Description: as §1, §2

In test [4] the target is T4, LexA (GSG)2rGR2 / B42 (GSG)2mDHFR (UniProt P00375+P06536, C656G/F620S).
T4 construct: rat Glucocorticoid Receptor (aa 524-795) with point mutations; expressed in transfected cells; host or cells: S. cerevisiae FY250
T4 sequence (P06536 524-795 F620S/C656G limits assumed): T1 sequence (P06536 524-795 F620S/C656G limits assumed)
T4 sequence (P00375 1-187): T2 sequence (P00375 1-187)
Briefly: β-galactosidase activity assay, strain V512Y.
Description: as §1, §2

In test [5] the target is T5, LexA (GSG)2rGR2 / B42 mDHFR (UniProt P00375+P06536, C656G/F620S).
T5 construct: expressed in transfected cells; host or cells: S. cerevisiae FY250 with pMW106 lacZ reporter
T5 sequence (P06536 524-795 F620S/C656G limits assumed): T1 sequence (P06536 524-795 F620S/C656G limits assumed)
T5 sequence (P00375 1-187): T2 sequence (P00375 1-187)
Briefly: β-galactosidase activity assay, strain V508Y.
Description: as §1, §2

For test [6], the target named is T6, LexA rGR2 / B42 (GSG)2mDHFR (UniProt P00375+P06536, C656G/F620S).
T6 construct: expressed in transfected cells; host or cells: S. cerevisiae FY250 with pMW106 lacZ reporter
T6 sequence (P06536 524-795 F620S/C656G limits assumed): T1 sequence (P06536 524-795 F620S/C656G limits assumed)
T6 sequence (P00375 1-187): T2 sequence (P00375 1-187)
In words: β-galactosidase activity assay, strain V511Y.
Description: as §1, §2

Another test has as its target T7, LexA eDHFR / B42 rGR2 (UniProt P06536+P0ABQ4, C656G/F620S).
T7 construct: rat Glucocorticoid Receptor (aa 524-795) with point mutations; expressed in transfected cells; host or cells: S. cerevisiae FY250
T7 sequence (P0ABQ4 1-159): T1 sequence (P0ABQ4 1-159)
T7 sequence (P06536 524-795 F620S/C656G limits assumed): T1 sequence (P06536 524-795 F620S/C656G limits assumed)
In words: β-galactosidase activity assay, strain V493Y.
Description: as §1, §2

The target of test [7] is T8, LexA (GSG)2mDHFR / B42 gly6rGR2 (UniProt P00375+P06536, C656G/F620S).
T8 construct: expressed in transfected cells; host or cells: S. cerevisiae FY250 with pMW106 lacZ reporter
T8 sequence (P00375 1-187): T2 sequence (P00375 1-187)
T8 sequence (P06536 524-795 F620S/C656G limits assumed): T1 sequence (P06536 524-795 F620S/C656G limits assumed)
Briefly: β-galactosidase activity assay, strain V503Y.
Description: as §1, §2

For test [8], the target named is T9, LexA (GSG)2eDHFR / B42 rGR2 (UniProt P06536+P0ABQ4, C656G/F620S).
T9 construct: rat Glucocorticoid Receptor (aa 524-795) with point mutations; expressed in transfected cells; host or cells: S. cerevisiae FY250
T9 sequence (P0ABQ4 1-159): T1 sequence (P0ABQ4 1-159)
T9 sequence (P06536 524-795 F620S/C656G limits assumed): T1 sequence (P06536 524-795 F620S/C656G limits assumed)
Briefly: β-galactosidase activity assay, strain V498Y.
Description: as §1, §2

For test [9], the target named is T10, LexA (GSG)2eDHFR / B42 (GSG)rGR2 (UniProt P06536+P0ABQ4, C656G/F620S).
T10 construct: rat Glucocorticoid Receptor (aa 524-795) with point mutations; expressed in transfected cells; host or cells: S. cerevisiae FY250
T10 sequence (P0ABQ4 1-159): T1 sequence (P0ABQ4 1-159)
T10 sequence (P06536 524-795 F620S/C656G limits assumed): T1 sequence (P06536 524-795 F620S/C656G limits assumed)
Briefly: β-galactosidase activity assay, strain V501Y.
Description: as §1, §2

Take `C[C@@H]1C[C@H]2C3CCC4=CC(=O)C=C[C@]4(C)[C@@]3(F)[C@@H](O)C[C@]2(C)[C@@]1(O)C(=O)NCCSCc1cccc(CSCC[C@H](NC(=O)c2ccc(N(C)Cc3cnc4nc(N)nc(N)c4n3)cc2)C(=O)O)c1` (stereo partly shown) [DM1]: the B-gal activity in test [1] is 9976 β-galactosidase units; in test [2] it was −8 β-galactosidase units; in test [3], 21 β-galactosidase units; in [4] it was −1 β-galactosidase units; in test [5], 0 β-galactosidase units; in [6], −113 β-galactosidase units. For the same compound, the B-gal activity at LexA eDHFR / B42 rGR2 is listed as 5753 β-galactosidase units; in test [7], −5 β-galactosidase units; in test [8], 4735 β-galactosidase units; in test [9], 4662 β-galactosidase units.
